Data: US20260183437A1, “VHH ANTIBODY CONJUGATES WITH HETEROARYL CHELATORS” (ABDERA THERAPEUTICS INC., priority 2022, published 2026)

Experiments:
[1] = test system: SHP-77 cells; assay: Internalization assay (pHAb dye labelled secondary antibody, flow cytometry); format: cell-based; conditions: 75 nM, 37° C.
Procedure: (§1) VHH-Fcs were tested for internalization by target-expressing cells using a secondary antibody conjugated to a pH sensitive dye. Goat anti-hu IgG-Fc secondary antibody was amine-conjugated to a pH sensitive pHAb dye (Promega Cat #G9845) according to the manufacturer's instructions. The pHAb dye has low or no fluorescence at pH>7 but fluoresces in acidic environment upon antibody internalization. […] VHH-Fcs and hIgG1 isotype control were diluted in media to 75 nM. Cells were spun to remove supernatant, resuspended with the prepared primary antibodies and incubated on ice for 1 hour. Excess primary antibody was washed off from cells and then incubated with pHAb labelled secondary antibody on ice for 30 minutes. Excess secondary was then washed off and cells were resuspended in media. One set of samples was placed in an incubator at 37° C. to allow internalization, and another set was left on ice (0° C.) as a binding only control. Cells were sampled at different time points ranging from 0 to 24 hours. Cells were stained with DAPI and read by flow cytometry on 572/28 channel with iQue screener platform. The VHH-Fcs show higher fluorescence than the negative controls (isotype, buffer) on target-positive cells.

[2] = test system: HEK-DLL3 cells; assay: as above; format: cell-based; conditions: 75 nM, 37° C.
Procedure: as §1

[3] = target: T1, human insulin (Homo sapiens, UniProt P01308); assay: Polyreactivity ELISA; format: binding; conditions: 10 μg/mL VHH-Fc; signal normalized to non-coated well
T1 construct: 5 μg/mL of human insulin (SigmaAlrich, Cat #: I9278); purchased SigmaAlrich I9278
Procedure: Polyreactivity of VHH-Fcs against negatively charged biomolecules was determined by ELISA (As in Avery et al., “Establishing in vitro in vivo correlations to screen monoclonal antibodies for physicochemical properties related to favorable human pharmacokinetics.” MAbs. 2018 February/March; 10(2):244-255). Briefly, ELISA plate was coated with 5 μg/mL of human insulin (SigmaAlrich, Cat #: I9278) and 10 μg/mL of double stranded DNA (SigmaAlrich, Cat #: D1626-250MG) overnight. The plate was blocked with ELISA buffer (PBS, 1 mM EDTA, 0.05% Tween-20, pH 7.4). 10 μg/mL of test VHH-Fcs was loaded onto the plates in quadruplicates and incubated for 2 hours. Goat anti-human Fc(0.01 ug/ml) conjugated with HRP was then added and the plate incubated for 1 hour. The signal was developed with TMB and A450 absorbance was measured with Synergy Neo2 plate reader. The signal was normalized with the signal of non-coated well for each antibody tested.

[4] = test system: HCT-116; assay: ABC (Antibody Binding Capacity) assay, receptor density; format: cell-based
Procedure: (§2) In order to test efficacy of the immunoconjugate binding with respect to target density receptor density was measured on target positive cell lines. Target density was measured using the ABC (Antibody Binding Capacity) assay. Cancer cells expressing the target of interest, as well as a negative control cell line, were harvested with cell dissociation buffer, seeded at about 5×10^4 cells per well into 96-well V bottom plate (Sarstedt 82.1583.001). Cells were tested for receptor expression using QuantiBRITE PE beads (BD Cat #340495) and a PE-conjugated anti-hu IgG (Biolegend clone HP6017) following the manufacturers' instructions. In brief, VHH-Fc and isotype control antibodies were prepared at suitable saturating concentrations based on previous experiments. Antibody sample dilutions were incubated with the panel of cell lines on ice for 1 hour. Cells were washed twice with 1% FBS in 1×PBS (FACS buffer), centrifuged at 400 G for 4 min. Cells were then incubated with 4 μg/mL mouse PE-conjugated anti-hu and DAPI (1:1000) for 30 minutes on ice. Cells were washed twice with FACS buffer, centrifuged at 400 G for 4 minutes and resuspended in FACS buffer. Fluorescence intensity on the PE channel was measured on the iQue Screener platform, and data were processed with ForeCyt software. The amount of PE signal generated from the different primary antibody was then fit to a standard curve based off of known PE molecules/Quantibrite bead samples to determine the number of antibody-binding sites per cell. Relative antibody binding sites correlate to the number of antigens or receptors on cell surface.

[5] = test system: BT474; assay: as above; format: cell-based
Procedure: as §2

[6] = test system: HEK293-6E; assay: as above; format: cell-based
Procedure: as §2

[7] = test system: HEK-DLL3; assay: as above; format: cell-based
Procedure: as §2

[8] = test system: SHP-77; assay: as above; format: cell-based
Procedure: as §2

[9] = Thermal stability by differential scanning fluorimetry (DSF); format: physicochemical
Procedure: Denaturing temperatures (Tm) of VHH-Fes were determined from differential scanning fluorimetry (DSF) using Protein Thermo Shift Dye Kit™ (ThermoFisher, Cat #: 4461146). Briefly, A total of 1 μg of antibody was used in each reaction. Melting curves of the antibodies were generated using an Applied Biosystems QuantStudio 7 Flex Real-Time PCR System with the recommended settings stated in the kit manual. The Tm's of the antibodies in Table 1 were then determined by using the ThermoFisher Protein Thermal Shift software (v.1.3). Tm1 of the VHH-Fcs was determined by DSF.

[10] = Pharmacokinetics of VHH-Fc variants in Tg32 (humanized FcRn) mice; format: in vivo; conditions: IV 3 mg/kg, HER2 VHH-Fc study (Table 6)
Procedure: Twenty eight (28) 8 week old male B6. Cg-Fcgrt^tm1Der Tg(FCGRT)32Dcr/DcrJ (Tg32 hom, JAX stock #014565) mice were distributed into 7 groups with 4 mice per group as outlined in the table. […] (See, e.g., Avery L B et al. “Utility of a human FcRn transgenic mouse model in drug discovery for early assessment and prediction of human pharmacokinetics of monoclonal antibodies.” MAbs. 2016 August-September; 8(6):1064-78). On Day 0, body weights were measured and test articles were IV administered to all mice at 3 mg/kg and 5 mL/kg. 25 μL blood samples were collected from each mouse at time intervals. The blood samples were collected into 1 μL K3EDTA, processed to plasma, diluted 1/10 in 50% glycerol in PBS, transferred into specialized 96 well storage plates, and stored at −20° C. All plasma samples were assessed via a hIgG ELISA chosen for its high sensitivity for all seven test articles.

T1 sequence (P01308 25-54 limits assumed): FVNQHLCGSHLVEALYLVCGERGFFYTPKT
T1 sequence (P01308 90-110 limits assumed): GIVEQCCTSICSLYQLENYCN

**Q.** With “H101: anti-HER2 VHH-Fc (2RS15d VHH, human IgG1 Fc); FcRn wt, Fc effector wt [Compound H101]” as the substance, how does the Internalization [1] read?
**A.** internalized

**Q.** What about the Internalization [2] of the same substance?
**A.** internalized

**Q.** What about the “Polyreactivity Assay Score, Insulin” value [3] of the same substance?
**A.** 1.176

**Q.** And the “Estimated number of epitopes/cell” value [4]?
**A.** 2604 epitopes/cell

**Q.** What about the “Estimated number of epitopes/cell” value [5] of the same substance?
**A.** 401604 epitopes/cell

**Q.** What about the “Estimated number of epitopes/cell” value [6] of the same substance?
**A.** 1935 epitopes/cell

**Q.** And the “Estimated number of epitopes/cell” value [7]?
**A.** 1490 epitopes/cell

**Q.** And the “Estimated number of epitopes/cell” value [8]?
**A.** 572 epitopes/cell

**Q.** And the “Tm1 (thermostability) by DSF” value [9]?
**A.** 67.5±0.1 Celsius

**Q.** What about the Clearance [10] of the same substance?
**A.** 28.7 mL/day

**Q.** And the Cmax [10]?
**A.** 57.0 µg/mL

**Q.** What about the “Terminal Half-Life” value [10] of the same substance?
**A.** 166 h
